In the NIST ThermoML archive (doi:10.1021/je4003916):
± gives the expanded uncertainty stated by the source.

Assay: refractive index (Na D-line) (dimensionless); xn = mol fraction of the nth substance listed
Conditions: 101 kPa, Liquid, Dipping refractometry (monochromatic)

C1CCOC1 [tetrahydrofuran] + CCCCO
refractive index
Conditions	x1 = 0.1001	x1 = 0.2003	x1 = 0.3	x1 = 0.4003	x1 = 0.5	x1 = 0.6001	x1 = 0.7003	x1 = 0.8006	x1 = 0.9002	x1 = 1
288.15 K	1.402 ± 0.0002	1.4028 ± 0.0002	1.4036 ± 0.0002	1.4043 ± 0.0002	1.4051 ± 0.0002	1.4059 ± 0.0002	1.4068 ± 0.0002	1.4077 ± 0.0002	1.4087 ± 0.0002	1.4096 ± 0.0002
293.15 K	1.3999 ± 0.0002	1.4006 ± 0.0002	1.4013 ± 0.0002	1.4021 ± 0.0002	1.4028 ± 0.0002	1.4035 ± 0.0002	1.4044 ± 0.0002	1.4052 ± 0.0002	1.4061 ± 0.0002	1.407 ± 0.0002
298.15 K	1.3978 ± 0.0002	1.3985 ± 0.0002	1.3991 ± 0.0002	1.3998 ± 0.0002	1.4004 ± 0.0002	1.4011 ± 0.0002	1.4019 ± 0.0002	1.4027 ± 0.0002	1.4035 ± 0.0002	1.4043 ± 0.0002
303.15 K	1.3957 ± 0.0002	1.3963 ± 0.0002	1.3969 ± 0.0002	1.3974 ± 0.0002	1.398 ± 0.0002	1.3987 ± 0.0002	1.3994 ± 0.0002	1.4001 ± 0.0002	1.4009 ± 0.0002	1.4016 ± 0.0002
308.15 K	1.3936 ± 0.0002	1.3941 ± 0.0002	1.3946 ± 0.0002	1.3951 ± 0.0002	1.3957 ± 0.0002	1.3962 ± 0.0002	1.3969 ± 0.0002	1.3975 ± 0.0002	1.3983 ± 0.0002	1.399 ± 0.0002
313.15 K	1.3914 ± 0.0002	1.3919 ± 0.0002	1.3923 ± 0.0002	1.3928 ± 0.0002	1.3933 ± 0.0002	1.3938 ± 0.0002	1.3943 ± 0.0002	1.3949 ± 0.0002	1.3956 ± 0.0002	1.3963 ± 0.0002
318.15 K	1.3893 ± 0.0002	1.3897 ± 0.0002	1.3901 ± 0.0002	1.3905 ± 0.0002	1.3909 ± 0.0002	1.3913 ± 0.0002	1.3918 ± 0.0002	1.3923 ± 0.0002	1.3929 ± 0.0002	1.3936 ± 0.0002
323.15 K	1.3871 ± 0.0002	1.3874 ± 0.0002	1.3878 ± 0.0002	1.3881 ± 0.0002	1.3885 ± 0.0002	1.3888 ± 0.0002	1.3893 ± 0.0002	1.3897 ± 0.0002	1.3903 ± 0.0002	1.3909 ± 0.0002
